Data set [1] can be described thus: Inhibition of GST-MDM2/His6-p53 interaction expressed in Escherichia coli after 1 hr by ELISA.
A short description of data set [2]: Chemical stability of the compound assessed as enzymatic hydrolysis in ammonium bicarbonate buffer at pH 7.8 after 24 hrs in presence of pronase. Type of data set: physicochemical. As to conditions: pH 7.8, 24 h.
The nature of data set [3]: Chemical stability of the compound assessed as enzymatic hydrolysis in ammonium bicarbonate buffer at pH 7.8 after 24 hrs in presence of trypsin. Type of data set: physicochemical. As to conditions: isolated protein, pH 7.8, 24 h.
Data set [4] in a line: Chemical stability of the compound assessed as enzymatic hydrolysis in ammonium bicarbonate buffer at pH 7.8 after 24 hrs in presence of chymotrypsin. Type of data set: physicochemical. The note with it: isolated protein, pH 7.8, 24 h.

As a reminder, the IC50 is the point on the concentration scale where inhibition reaches its midpoint. Read a high IC50 as a need for much substance.

`CCC(=O)N(CCNC(=O)[C@H](Cc1c[nH]c2ccccc12)N(CCNC(=O)[C@H](Cc1ccccc1)N(CCNC(=O)[C@H](C)N(CCN)C(=O)CC(C)C)C(=O)CC)C(=O)CCO)[C@H](C(N)=O)C(C)C` registered an IC50 in data set [1] of more than 1000 µM.

The compound `CCC(=O)N(CCNC(=O)[C@H](CC(C)C)N(CCNC(=O)[C@H](Cc1c[nH]c2ccccc12)N(CCNC(=O)[C@H](Cc1ccccc1)N(CCN)C(=O)CC)C(=O)CCO)C(=O)CC)[C@@H](C)C(N)=O` displayed an IC50 in data set [1] of 120 µM. For `CCC(=O)N(CCNC(=O)[C@H](CC(C)C)N(CCNC(=O)[C@H](Cc1c[nH]c2ccccc12)N(CCNC(=O)[C@H](Cc1ccccc1)N(CCNC(=O)[C@H](C)N(CCN)C(=O)CC)C(=O)CC)C(=O)CCO)C(=O)CCc1ccccc1)[C@@H](C)C(N)=O`, the Stability entry in data set [2], in data set [3] and in data set [4] was “Stable” throughout. In data set [1], the 50% inhibitory concentration (IC50) was 120 µM. Consider `CC(=O)N[C@@H](CCC(N)=O)C(=O)N[C@@H](CCC(=O)O)C(=O)N[C@H](C(=O)N[C@@H](Cc1ccccc1)C(=O)N[C@@H](CO)C(=O)N[C@@H](CC(=O)O)C(=O)N[C@@H](CC(C)C)C(=O)N[C@@H](Cc1c[nH]c2ccccc12)C(=O)N[C@@H](CCCCN)C(=O)N[C@@H](CC(C)C)C(=O)N[C@@H](CC(C)C)C(=O)N1CCC[C@H]1C(=O)O)[C@@H](C)O`, for which, in data set [1], the midpoint of inhibition, the IC50, lay at 8.7 µM. The compound `CCC(=O)N(CCNC(=O)[C@H](CC(C)C)N(CCNC(=O)[C@H](Cc1c[nH]c2ccccc12)N(CCNC(=O)[C@H](Cc1ccccc1)N(CCNC(=O)[C@H](C)N(CCN)C(=O)CC)C(=O)CC)C(=O)CCO)C(=O)CC)[C@@H](C)C(N)=O` showed an IC50 in data set [1] of 38 µM.

Values taken from ChEMBL document CHEMBL1681656, “Design and synthesis of AApeptides: a new class of peptide mimics” (Bioorg Med Chem Lett, 2011).
